Data published in patent publication US4581346A, “Macrolide derivatives” (Eli Lilly and Company, priority 1984, dated 1986).
Values after ≈ are worked out from the molar mass of the structure shown.

Columns and labels:
Experiment in all cases: Standard agar-dilution assay, MIC
Format in all cases: cell-based
Escherichia coli EC14 = tested on: Escherichia coli EC14
Experimental: (§1) The minimal inhibitory concentrations (MIC's) at which the tylosin derivative (formula 1 compound wherein [drawing 11] and R^3 =mycarosyloxy) inhibits certain bacteria are given in Table II. The MIC's in Table II were determined by standard agar-dilution assays.

Escherichia coli N10 = tested on: Escherichia coli N10
Experimental: as §1

Escherichia coli TEM = tested on: Escherichia coli TEM
Experimental: as §1

[1] = tested on: Haemophilus influenzae 76; settings: Haemophilus influenzae 76, ampicillin-resistant strain
Experimental: as §1

[2] = tested on: Haemophilus influenzae C.L.; settings: ampicillin-sensitive strain
Experimental: as §1

[3] = tested on: Staphylococcus aureus S13E
Experimental: as §1

[4] = tested on: Staphylococcus aureus V41; settings: Staphylococcus aureus V41, penicillin-resistant strain
Experimental: as §1

[5] = tested on: Staphylococcus aureus X1.1
Experimental: as §1

[6] = tested on: Staphylococcus aureus X400
Experimental: as §1

[7] = tested on: Staphylococcus epidermidis EPI1
Experimental: as §1

[8] = tested on: Staphylococcus epidermidis EPI2
Experimental: as §1

[9] = tested on: Streptococcus Group D 9960; settings: GROUPD9960
Experimental: as §1

[10] = tested on: Streptococcus Group D X66
Experimental: as §1

[11] = tested on: Streptococcus pneumoniae Park I
Experimental: as §1

[12] = tested on: Streptococcus pyogenes C203
Experimental: as §1

CCC1OC(=O)CC(O)C(C)C(OC2OC(C)C(OC3CC(C)(O)C(O)C(C)O3)C(N(C)C)C2O)C2CC(O)C(C)(C2)C(=O)C=CC(C)=CC1COC1OC(C)C(O)C(OC)C1OC (stereo not drawn) [8,20-Cyclo-Tylosin, 8,20-Cyclo-tylosin]
MIC (Escherichia coli EC14): > 128 µg/mL | MIC (Escherichia coli N10): > 128 µg/mL | MIC (Escherichia coli TEM): > 128 µg/mL | MIC [1]: 128 µg/mL (≈ 140 µM) | MIC [2]: 128 µg/mL (≈ 140 µM) | MIC [3]: 2 µg/mL (≈ 2.18 µM) | MIC [4]: 2 µg/mL (≈ 2.18 µM) | MIC [5]: 1 µg/mL (≈ 1.09 µM) | MIC [6]: 2 µg/mL (≈ 2.18 µM) | MIC [7]: 1 µg/mL (≈ 1.09 µM) | MIC [8]: 0.5 µg/mL (≈ 0.546 µM) | MIC [9]: 32 µg/mL (≈ 34.9 µM) | MIC [10]: 32 µg/mL (≈ 34.9 µM) | MIC [11]: 2 µg/mL (≈ 2.18 µM) | MIC [12]: 1 µg/mL (≈ 1.09 µM)
